Like-named read-outs stand apart in the source and are kept apart here. Values belong to the compound of their own block, whether it stands above or below them.
Assays:
[1] = tested on: platelet aggregation to adenosine diphosphate (ADP; 20 μM); assay: Inhibition of platelet aggregation (IPA) to ADP (20 μM) after SC injection in healthy volunteers and stable CAD patients on aspirin; format: in vivo, human; details: for mean±SD IPA / IPA: 15 minutes after injection; for IPA: stable CAD patients on aspirin
Protocol: Sequentially, healthy volunteers (HV) and then patients with stable coronary disease (CAD) receiving aspirin received escalating doses of RUC-4 or placebo in a sentinel dose, randomized, blinded fashion. Inhibition of platelet aggregation (IPA) to adenosine diphosphate (ADP; 20 μM), RUC-4 blood levels, laboratory evaluations, and clinical assessments were made through 24 hours and at 7 days. Doses were increased until a dose that produced ≥80% IPA within 15 minutes, with return toward baseline within 4 hours was achieved. VerifyNow (VN) was also measured in a subset of patients with stable CAD.

[2] = tested on: PAR1/PAR4-induced platelet aggregation (BASE Channel); assay: VerifyNow P2Y12 assay BASE channel platelet inhibition in STEMI patients (CEL-02 trial); format: in vivo, human; details: for inhibition at 0.075 mg/kg / inhibition at 0.09 mg/kg / inhibition at 0.11 mg/kg: Homo sapiens, Platelet; for inhibition at 0.075 mg/kg: 0.075 mg/kg SC; for inhibition at 0.09 mg/kg: 0.090 mg/kg SC; for inhibition at 0.11 mg/kg: 0.11 mg/kg SC
Description: The open-label, dose escalating, phase 2, CEL-02 trial set out to assess the pharmacodynamics (PD), pharmacokinetics (PK), safety and tolerability of RUC-4 in STEMI patients treated with aspirin and ticagrelor in the ambulance undergoing primary percutaneous coronary intervention (pPCI). STEMI patients presenting for pPCI at the St. Antonius Hospital Nieuwegein, the Netherlands, received a single, weight-adjusted, subcutaneous injection of RUC-4 before coronary angiography. After assessment of every 8 evaluable patients, the dose was escalated to reach an optimal dose for platelet inhibition. All patients were concomitantly treated with aspirin, ticagrelor and unfractionated heparin (UFH)(5000 IU) in the ambulance. Additional UFH during PCI was only administered when ACT was <200 seconds (2500-5000 IU). Blood samples for (PD) and (PK) were taken before RUC-4 administration, and 15, 45, 60, 90, 120, 180, and 240 minutes thereafter. Platelet inhibition was measured by the VerifyNow P2Y12 assay BASE channel which uses a protease activated receptor-1 (PAR-1) peptide (iso-TRAP) and a PAR-4 activating peptide as agonists, overriding platelet inhibition by oral P2Y12 inhibitors.

[3] = tested on: platelets in whole blood (VN isoTRAP and ADP+PGE1 channels); assay: In vitro VerifyNow IIb/IIIa and PRU cartridges in whole blood from healthy volunteers; format: cell-based, human; details: 30-900 nM, 10 minutes at room temperature
Protocol: Whole blood anticoagulated with either sodium citrate (0.32%) or PPACK ([…]) from healthy volunteers who were either taking or not taking daily aspirin was treated in vitro with Compound (I) (RUC-4) to achieve final whole blood concentrations between 30 and 900 nM. Blood was incubated for 10 minutes at room temperature and then tested with either the IIb/IIIa or PRU cartridge.

[4] = tested on: platelet aggregation; assay: Light transmission aggregometry (LTA) with activators ADP, iso-TRAP, arachidonic acid; format: cell-based
Description: Light transmission aggregometry (LTA) is considered the gold standard assay to assess the potency of antiplatelet agents, such as Compound (I), because of its association with clinical outcomes.

[5] = tested on: agglutination of fibrinogen-coated beads by activated platelets; assay: VerifyNow ADP+PGE1, iso-TRAP and base channel assays; format: cell-based
Protocol: VerifyNow (VN) assays (Instrumentation Laboratories, Bedford, MA) are whole-blood, cartridge-based, and automated, and produce results within 15 minutes of blood draw. They are based on the agglutination of fibrinogen-coated beads by platelets activated by different agonists. Commercially available VN assays are designed to study the antiplatelet effects of aspirin (VN Aspirin cartridge; arachidonic acid activator) or P2Y12 antagonists (VN PRUTest cartridge and VN P2Y12 cartridge; ADP+PGE1 activator/inhibitor combination). The modified thrombin receptor activating peptide (iso-TRAP) is included in a separate reaction chamber (in addition to the ADP+PGE1 reaction chamber) in both the PRUTest and P2Y12 cartridges, and the P2Y12 cartridges further include a ‘BASE channel’ reaction chamber in which a PAR-1 activating peptide (iso-TRAP) at higher concentrations is combined with a PAR-4 activating peptide (PAR-4 AP) to achieve potent activation that can overcome the effects of P2Y12 antagonists.
VerifyNow ADP+PGE1, iso-TRAP, and base channel assays may be used to report Compound (1)-mediated inhibition in near real-time. VN assays can be used to help deconvolute antiplatelet effects of αIIbβ3 antagonists versus P2Y12 antagonists. […] The BASE channel assay was used to monitor the pharmacodynamic effects of Compound (1) independent of any P2Y12 inhibitors.

SMILES: NCC(=O)Nc1cncc(-c2nn3c(=O)cc(N4CCNCC4)nc3s2)c1 [RUC-4]
- mean±SD IPA ([1]; healthy volunteers, 0.05 mg/kg SC, n=6): 71.8±15.0%
- mean±SD IPA ([1]; healthy volunteers, 0.075 mg/kg SC, n=6): 84.7±16.7%
- time over which IPA diminished ([1]; healthy volunteers, in all cases, after SC injection): 90 to 120 min
- IPA ([1]; 0.04 mg/kg SC, n=2): 53.6±17.0%
- IPA ([1]; 0.05 mg/kg SC, n=6): 76.9±10.6%
- IPA ([1]; 0.075 mg/kg SC, n=18): 88.9±12.7%
- inhibition at 0.075 mg/kg ([2]; 0.25 h, 15 minutes post-dose, n=8, with aspirin, ticagrelor, UFH, read-out: maximal platelet inhibition, mean [SD]): 83.7%
- inhibition at 0.09 mg/kg ([2]; 0.25 h, 15 minutes post-dose, n=9, with aspirin, ticagrelor, UFH, read-out: maximal platelet inhibition, mean [SD]): 89.6%
- inhibition at 0.11 mg/kg ([2]; 0.25 h, 15 minutes post-dose, n=10, with aspirin, ticagrelor, UFH, read-out: maximal platelet inhibition, mean [SD]): 92.5%
- inhibition at 0.075 mg/kg ([2]; 2 h, 120 minutes post-dose, n=8, read-out: platelet inhibition, mean (SD)): 17.9%
- inhibition at 0.09 mg/kg ([2]; 2 h, 120 minutes post-dose, n=9, read-out: platelet inhibition, mean (SD)): 22.6%
- inhibition at 0.11 mg/kg ([2]; 2 h, 120 minutes post-dose, n=10, read-out: platelet inhibition, mean (SD)): 31.6%
- time to maximal platelet function inhibition ([2]; single-dose subcutaneous): ≤ 15 min
- time to return of platelet function ([2]; single-dose subcutaneous): ≤ 120 min
- inhibition of the VN isoTRAP channels ([3]; IIb/IIIa and PRU cartridges): dose-dependent inhibition
- inhibition of the VN ADP+PGE1 channel ([3]; PRU cartridge): dose-dependent inhibition
- inhibition of AA (arachidonic acid) induced LTA [4]: dramatically inhibits
- inhibition of ADP induced LTA [4]: dramatically inhibits
- inhibition of VN ADP+PGE1 assay [5]: dramatically inhibits
- inhibition of VN base channel assay [5]: dramatically inhibits
- inhibition of VN iso-TRAP assay [5]: dramatically inhibits

- effect of aspirin on RUC-4 blood levels ([1]; subjects given RUC-4 SC): did not affect
SMILES: CC(=O)Oc1ccccc1C(=O)O [aspirin]
- effect of aspirin on IPA ([1]; subjects given RUC-4 SC): did not affect
- inhibition of ADP induced LTA [4]: does not significantly inhibit
- inhibition of iso-TRAP induced LTA [4]: does not significantly inhibit
- inhibition of VN ADP+PGE1 assay [5]: does not inhibit
- inhibition of VN base channel assay [5]: does not inhibit
- inhibition of VN iso-TRAP assay [5]: does not inhibit

SMILES: CCCSc1nc(N[C@@H]2C[C@H]2c2ccc(F)c(F)c2)c2nnn([C@@H]3C[C@H](OCCO)[C@@H](O)[C@H]3O)c2n1 [ticagrelor]
- inhibition of iso-TRAP induced LTA [4]: slightly inhibits
- inhibition of VN ADP+PGE1 assay [5]: dramatically inhibits
- inhibition of VN base channel assay [5]: does not inhibit
- inhibition of VN iso-TRAP assay [5]: slightly inhibits

From US20250268902A1, “THERAPEUTIC METHODS” (CeleCor Therapeutics, Inc., priority 2021, published 2025)
